PubChem BioAssay (NCI)
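Values below derive from 48-hour exposures of cells grown in 96-well plates, with endpoints linearly interpolated between the two concentrations bracketing the appropriate inhibition level. TGI: total growth inhibition.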

Tests used:
Assay in all cases: inhibition of tumour cell growth, NCI panel, 48 h
[1] = tested on: 786-0 renal
[2] = tested on: A498 renal
[3] = tested on: A549 NSCLC
[4] = tested on: ACHN renal
[5] = tested on: BT-549 breast
[6] = tested on: CAKI-1 renal
[7] = tested on: CCRF-CEM leukemia
[8] = tested on: COLO 205 colon
[9] = tested on: EKVX NSCLC
[10] = tested on: HCC-2998 colon
[11] = tested on: HCT-116 colon
[12] = tested on: HCT-15 colon
[13] = tested on: HL-60(TB) leukemia
[14] = tested on: HOP-62 NSCLC
[15] = tested on: HOP-92 NSCLC
[16] = tested on: HS 578T breast
[17] = tested on: HT29 colon
[18] = tested on: IGROV1 ovarian
[19] = tested on: K-562 leukemia
[20] = tested on: KM12 colon
[21] = tested on: LOX IMVI melanoma
[22] = tested on: M14 melanoma
[23] = tested on: MALME-3M melanoma
[24] = tested on: MCF7 breast
[25] = tested on: MDA-MB-231 breast
[26] = tested on: MDA-MB-435
[27] = tested on: MDA-N
[28] = tested on: MOLT-4 leukemia
[29] = tested on: NCI-H226 lung
[30] = tested on: NCI-H23 lung
[31] = tested on: NCI-H460 lung
[32] = tested on: NCI-H522 lung
[33] = tested on: NCI/ADR-RES ovarian
[34] = tested on: OVCAR-3 ovarian
[35] = tested on: OVCAR-4 ovarian
[36] = tested on: OVCAR-5 ovarian
[37] = tested on: OVCAR-8 ovarian
[38] = tested on: PC-3 prostate
[39] = tested on: RPMI-8226 leukemia
[40] = tested on: RXF 393 renal
[41] = tested on: SF-268 CNS
[42] = tested on: SF-295 CNS
[43] = tested on: SF-539 CNS
[44] = tested on: SK-MEL-2 melanoma
[45] = tested on: SK-MEL-28 melanoma
[46] = tested on: SK-MEL-5 melanoma
[47] = tested on: SK-OV-3 ovarian
[48] = tested on: SN12C renal
[49] = tested on: SNB-19 CNS
[50] = tested on: SNB-75 CNS
[51] = tested on: SR leukemia
[52] = tested on: SW-620 colon
[53] = tested on: T-47D breast
[54] = tested on: TK-10 renal
[55] = tested on: U251 CNS
[56] = tested on: UACC-257 melanoma
[57] = tested on: UACC-62 melanoma
[58] = tested on: UO-31 renal
[59] = tested on: DU-145 prostate

## CCN1CN(c2ccccc2)C2(CCN(CC(CC3OCCO3)c3ccc(F)cc3)CC2)C1=O (centres undefined)
[1]
  TGI: 39 µM
[2]
  TGI: 9.51 µM
[3]
  TGI: > 100 µM
[4]
  TGI: > 30.5 µM
[5]
  TGI: 53.2 µM
[6]
  TGI: 22.5 µM
[7]
  TGI: > 43.1 µM
[8]
  TGI: 1.95 µM
[9]
  TGI: > 100 µM
[10]
  TGI: 46.1 µM
[11]
  TGI: 11 µM
[12]
  TGI: > 67.5 µM
[13]
  TGI: 49.3 µM
[14]
  TGI: 12.1 µM
[15]
  TGI: 10.3 µM
[16]
  TGI: > 64.1 µM
[17]
  TGI: 5.69 µM
[18]
  TGI: > 53.8 µM
[19]
  TGI: > 87.6 µM
[20]
  TGI: 17.5 µM
[21]
  TGI: 35.1 µM
[22]
  TGI: 9.54 µM
[23]
  TGI: 43.1 µM
[24]
  TGI: 7.22 µM
[25]
  TGI: > 44.2 µM
[26]
  TGI: 38.2 µM
[27]
  TGI: > 26.3 µM
[28]
  TGI: > 67 µM
[29]
  TGI: 65 µM
[30]
  TGI: > 57.3 µM
[31]
  TGI: 33 µM
[32]
  TGI: 26.6 µM
[33]
  TGI: > 92.7 µM
[34]
  TGI: 50.7 µM
[35]
  TGI: 36.3 µM
[36]
  TGI: 25.4 µM
[37]
  TGI: > 100 µM
[38]
  TGI: > 100 µM
[39]
  TGI: 60.2 µM
[40]
  TGI: 44.8 µM
[41]
  TGI: 38.2 µM
[42]
  TGI: 18.9 µM
[43]
  TGI: 25.5 µM
[44]
  TGI: 46.8 µM
[45]
  TGI: 40.5 µM
[46]
  TGI: 15.2 µM
[47]
  TGI: > 73.3 µM
[48]
  TGI: > 89.5 µM
[49]
  TGI: > 92 µM
[50]
  TGI: 93 µM
[51]
  TGI: > 100 µM
[52]
  TGI: > 40.4 µM
[53]
  TGI: 38.9 µM
[54]
  TGI: > 46.7 µM
[55]
  TGI: 38.9 µM
[56]
  TGI: 13.8 µM
[57]
  TGI: 47.1 µM
[58]
  TGI: > 74.8 µM

## COc1ccc(/C=C2\C[C@H]3[C@@H]4CCC5=CC(=O)CC[C@]5(C)[C@H]4CC[C@]3(C)C2=O)cc1OC
[1]
  TGI: > 100 µM
[2]
  TGI: > 100 µM
[3]
  TGI: > 100 µM
[4]
  TGI: > 100 µM
[5]
  TGI: > 100 µM
[6]
  TGI: > 100 µM
[7]
  TGI: 47.2 µM
[8]
  TGI: 9.93 µM
[59]
  TGI: > 100 µM
[9]
  TGI: 61.2 µM
[10]
  TGI: > 100 µM
[11]
  TGI: > 100 µM
[12]
  TGI: > 100 µM
[13]
  TGI: 6.91 µM
[14]
  TGI: > 100 µM
[15]
  TGI: > 100 µM
[16]
  TGI: > 100 µM
[17]
  TGI: > 100 µM
[18]
  TGI: > 100 µM
[19]
  TGI: > 100 µM
[20]
  TGI: > 100 µM
[21]
  TGI: > 100 µM
[22]
  TGI: > 100 µM
[23]
  TGI: > 100 µM
[24]
  TGI: > 100 µM
[26]
  TGI: > 100 µM
[27]
  TGI: > 100 µM
[28]
  TGI: 44.6 µM
[29]
  TGI: > 100 µM
[30]
  TGI: > 100 µM
[31]
  TGI: > 100 µM
[32]
  TGI: 9.87 µM
[33]
  TGI: > 100 µM
[34]
  TGI: > 100 µM
[35]
  TGI: > 100 µM
[36]
  TGI: > 100 µM
[37]
  TGI: > 100 µM
[38]
  TGI: > 100 µM
[39]
  TGI: 47.3 µM
[40]
  TGI: > 100 µM
[41]
  TGI: > 100 µM
[42]
  TGI: > 100 µM
[43]
  TGI: > 100 µM
[44]
  TGI: 43.6 µM
[45]
  TGI: > 100 µM
[46]
  TGI: 5.45 µM
[47]
  TGI: > 100 µM
[48]
  TGI: > 100 µM
[49]
  TGI: > 100 µM
[50]
  TGI: > 100 µM
[51]
  TGI: 7.4 µM
[52]
  TGI: > 100 µM
[53]
  TGI: > 100 µM
[56]
  TGI: 68.4 µM
[57]
  TGI: > 100 µM
[58]
  TGI: 6.85 µM
